Measurements taken from patent publication US10640430B2, “Fertilizer capsule comprising one or more cores and method of making same” (SAUDI BASIC INDUSTRIES CORPORATION, priority 2014, dated 2020).
“Also recorded” adds a separate entry of the source.

Experiments:
[1] = cited from earlier work
[2] = Stability of inhibitors in extrudates in urea melt (HPLC, LCMS); type: physicochemical; details: urea melt conditions
Experimental: Representative procedure for checking the Inhibitor stability in urea melt: The extrudate (1.0 g) was added to a vial containing urea melt (3.0 g) and it was left at the same temperature for one minute. The Vial was then cooled to room temperature and diluted with 5.0 ml of water (milli-Q water). The water was decanted and the same process was repeated twice, to remove most of the urea. Finally, water (5.0 ml) was added to the extrudate and left for 4 h before submitting the samples for HPLC analysis.
Stability of inhibitors in urea melt: Extrudates containing inhibitors were tested for their stability in urea melt using HPLC and LCMS.
Extrudates containing NBTPT/DCD were dipped in urea melt in order to check the stability of the extrudates. Two types of studies were performed, 1) to check the deformation ability of extrudate in urea melt; and 2) to check the stability of inhibitors. Castor wax extrudates with and without inhibitors sustain the urea melt conditions under 5 seconds but inhibitors (NBTPT and DCD) were stable under these conditions. Bleached wheat flour containing extrudates sustained the urea melt temperature (133-135° C.). High melt waxes are taken in to consideration in order to mitigate the problem of possible deformation of wax extrudates when exposed to urea melt. The extrudates of high melt waxes were exposed to urea melt. […] The stability of NBTPT and DCD under urea melt temperature were analyzed and confirmed by HPLC and LCMS.

[3] = Stability of NBTPT during oven drying of water containing extrudates; type: physicochemical; details: extrudates dried in oven at 120° C. overnight
Description: Optimized formulations from the DACA were successfully extruded in the pilot scale extruder in 300 g scale. 100% bleached wheat flour was also extruded with 10-20% water which was not done in DACA.

[4] = Thermal stability of neat NBTPT and NBTPT within a core at 133-135° C. by HPLC; type: physicochemical; details: exposed to 133-135° C. (urea melt temperature), up to 30 min
Experimental: The thermal stability of neat NBTPT and NBTPT contained within a core, as disclosed herein, can be determined by HPLC. For example, neat NBTPT or a core containing NBTPT can be exposed to 135° C. (133-135° C. is the typical temperature range of a urea melt) and can continuously be analyzed by HPLC every 5 min. Such data will determine how whether the NBTPT has better thermal stability when contained within a core, as compared to neat NBTPT.
The thermal stability of neat NBTPT and NBTPT within a core was determined by HPLC. The core for this example contained 58.8 wt % PoP, 39.2 wt % bleached wheat flour, and 2.0 wt % NBTPT. Both neat NBTPT and NBTPT within a core were exposed to 133-135° C., which is the typical urea melt temperature. […] The data indicates the core protects fertilizer additive materials, such as an inhibitor, from degradation during manufacturing conditions, including the expose of temperatures associated with a urea melt. The thermal stability of materials, such as an inhibitor is critical for its good performance (inhibition) in the soil. The intended function of a material, such as an inhibitor, can be lost if the material degrades when exposed to high temperatures during the manufacturing process.

[5] = bleached wheat flour extrudate containing the inhibitor
[6] = castor wax extrudate containing the inhibitor

Structure (SMILES) | Thermal stability in the soil ([1]; hot climatic region, soil) | Degradation of inhibitor in HPLC [2, 5] | Degradation of inhibitor in HPLC [2, 6] | Stability under acidic pH ([1]; acidic pH) | Stability of NBTPT on drying [3] | Thermal stability (decomposition by HPLC) ([4]; listed as Neat NBTPT) | Thermal stability (decomposition by HPLC) ([4]; listed as neat NBTPT)
N#CN=C(N)N [DCD, dicyandiamide] | thermal instability | no degradation | stable; also recorded: no degradation |  |  |  | 
CCCCNP(N)(N)=S [NBTPT, N-(n-butyl) thiophosphoric triamide] |  | no degradation | stable; also recorded: no degradation | unstable | stable | significant degradation | decomposes
